Several values for one entry are separate records, joined by “and”; a condition that tells them apart may be missing. Equal values may be shown once.
Assays:
[1] = biological target: T1, human PD1-PDL1 interaction (Homo sapiens, UniProt Q9NZQ7); details: Table S1; ref BMS Patent 1: WO2015034820A1; cited from earlier work
T1 construct: purchased Perkin Elmer

protein kinase D (PKD) = biological target: protein kinase D (PKD); design: method as in PMID 20497126; details: VEGF-treated endothelial cells; read-out: IC50 against all three PKD isoforms; cited from earlier work
[2] = biological target: T1, human PD1-PDL1 interaction; assay: HTRF human PD1-PDL1 binding assay; details: for IC50: dose–response 0–100 µM
Description: The homogeneous time-resolved fluorescence (HTRF) binding assay was used to test these top 20 molecules for their potential blockade of human PD1-PDL1 interaction. We have previously established the utility of the HTRF assay over similar homogenous assay like AlphaLISA, with the latter proving to be more promiscuous in identifying potential false positives against PD1-PDL1 target.
The potential activity of our virtual hits in inhibiting PD1-PDL1 interaction was investigated using the homogeneous time-resolved fluorescence (HTRF) binding assay from Perkin Elmer. The assay was carried out according to the manufacturer’s instructions using the HTRF protocol in BioTek Synergy Neo^TM microplate reader. […] The assay mixture with only PDL1 protein, but not PD1 protein served as a negative control denoting 0% PD1-PDL1 interaction. […] The dose–response data were analyzed using GraphPad Prism to determine IC50 values using nonlinear regression variable slope models.

[3] = system: ceramide synthase 1 (CerS1); details: mice fed with high-fat diet; cited from earlier work
PD1-PDL1 interaction = system: PD1-PDL1 interaction; design: method as in PMID 34117723; details: read-out: IC50, PD1-PDL1 inhibitor; cited from earlier work
[4] = 25 µM single-dose test concentration

T1 sequence (Q9NZQ7 19-238 limits assumed): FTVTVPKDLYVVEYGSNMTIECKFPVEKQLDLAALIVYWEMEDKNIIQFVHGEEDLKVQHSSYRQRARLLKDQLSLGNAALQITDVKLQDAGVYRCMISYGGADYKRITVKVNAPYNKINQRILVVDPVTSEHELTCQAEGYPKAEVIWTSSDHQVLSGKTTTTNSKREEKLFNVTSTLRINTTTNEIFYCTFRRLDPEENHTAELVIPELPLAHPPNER

Compound: COc1cc(OCc2cccc(-c3ccccc3)c2C)cc(OC)c1CN1CCCC[C@H]1C(=O)O [Compound 1--1]
- Activity (classification used for ML modeling) [1]: ACTIVE

Compound: CCOc1ccc2cc(-c3cc(-c4cccc(C(=O)NCCN(C)C)c4)cnc3N)ccc2c1 [Compound 1]
- IC50 (protein kinase D (PKD)): 0.001 to 0.002 µM
- % PD1-PDL1 Inhibition [2, 4]: 50.9 ± 1.3%
- IC50 [2]: ~22 µM and ~22.4 µM
- IC50 ([2]; listed as CRT5): 22.4 µM

Compound: C[C@@](N)(CO)CCc1ccc(OCc2ccc(Cl)c(Cl)c2)cc1 [Compound 2]
- fatty acid oxidation in skeletal muscles [3]: increased fatty acid oxidation
- % PD1-PDL1 Inhibition [2, 4]: 41.4 ± 0.9%
- IC50 [2]: ~33.6 µM
- IC50 ([2]; listed as P053): 33.6 µM

Compound: Cc1c(COc2ccc(CN3CCCCC3C(=O)O)cc2Br)cccc1-c1ccccc1 (centres unmarked) [Compound 18]
- inhibition at 25 µM [2, 4]: -4.4 ± 1.2%

Compound: Cc1cc(/C=C/c2ccc3cc(N(C)C)ccc3[n+]2C)c(C)n1-c1ccccc1 [Pyrvinium]
- IC50 (PD1-PDL1 interaction): ~29.7 µM
